Data taken from patent US20260347325A1, “DIPHENYLPYRAZOLE COMPOUNDS AND THEIR USE” (INSTITUT NATIONAL DE LA SANTÉ ET DE LA RECHERCHE MÉDICALE, priority 2022, published 2026).

Tests used:
αCTF [1] = details: 20-fold increase vs untreated; prior art reference compounds, footnotes e, f cite literature; cited from earlier work
AICD [2] = details: 20-fold increase vs untreated; prior art reference compounds, footnotes e, f cite literature; cited from earlier work
SY5Y-APP695WT cells = details: 72 h; prior art reference compounds, footnotes e, f cite literature; read-out: Cytotoxicity CC50; cited from earlier work
Aβ = details: in words; cited from earlier work
APP-CTFs and AICD = details: in words; cited from earlier work
[3] = system: γ-secretase cleavage of Notch; details: in words; cited from earlier work
Aβ1-40 = Aβ1-40 secretion in SY5Y-APPwt cells (ELISA of conditioned media); type: cell-based; details: Homo sapiens, 24 h, inhibiting 50% of Aβ1-40 secretion, mean ± SD of at least two experiments in triplicate
Experimental: (§1) 2. Cell Culture and Treatments
(§2) The human neuroblastoma cell line SY5Y-APP^695WT was maintained in Dulbecco's modified Eagle medium (DMEM, high glucose, pyruvate—GIBCO, Life Technologies) supplemented with 10% fetal bovine serum, 2 mM L-glutamine, 1 mM non-essential amino acids and penicillin/streptomycin (GIBCO, Life Technologies) at 37°C in a 5% CO2 humidified incubator [36]. For compound treatment, a 10 mM stock solution was diluted in freshly supplemented DMEM medium to obtain the precise final concentration of the drug. Cells were plated at a density of 5.10^5 cells per well into 12-well plates and cultured with 1 mL supplemented DMEM cell medium for 24 h before compound exposure. The following day, the cell medium was replaced with fresh medium containing the compounds diluted at the indicated concentrations. Cells were treated for 24 h. At the end of treatments, the cell medium was collected and kept at −80°C until use, cells were rinsed once with PBS and extracted in 100 μL of Laemmli buffer (10 mM Tris, 20% glycerol, and 2% sodium dodecyl sulfate) using a cell-scraper. The cell lysate was further sonicated (30 pulses of 0.5 s, 60 Hz) for 5 min. Total protein concentration was determined using the Pierce BCA Protein Assay Kit (Thermo Scientific) according to the manufacturer's instructions. Samples were stored at −80°C until analysis.
(§3) 5. Quantification of Secreted Aβ and sAPP […]
(§4) Aβ1-40/Aβ1_42 peptides, Aβx-38/Aβx-40/Aβx-42 and sAPPα/sAPPβ concentrations in […] were determined, respectively, using amyloid-beta 40 and 42 Human ELISA kits (Invitrogen), V-PLEX Plus Aβ Peptide Panel 1 (4G8) Kit (Meso Scale Diagnostics, MSD R©) and sAPPα/sAPPβ multiplex kit (Meso Scale Diagnostics, MSD R©) according to the manufacturer's instructions.
(§5) Compounds of the invention (compounds 16-17, 24-35, 57-58 and 61-72) were evaluated for their ability to modulate APP processing on SYSY human neuroblastoma cell line stably expressing the neuronal isoform of human wild-type APP695 (SY5Y-APP^wt). APP carboxy-terminal fragments (αCTFs and AICD) levels were assessed by western blotting (WB). The effect of reference and test compounds on αCTFs and AICD is expressed as the intensity of corresponding WB bands. The concentration of compounds able to increase 20-times αCTFs and AICD (C20) when compared to the control condition was calculated. Selected compounds were also evaluated for their ability to modulate the secretion of soluble APP fragments (sAPPα and sAPPβ). Aβ1-x levels (Aβ1_40 and Aβ1-42) after treatment with reference and tested compounds were measured in the cell media by ELISA (Table 2). […] Selected hit compounds were then further evaluated for their ability to decrease the level of N-truncated Aβ peptides (Aβx-38, Aβx-40, and Aβx-42). […]

Aβ1-42 = Aβ1-42 secretion in SY5Y-APPwt cells (ELISA of conditioned media); type: cell-based; details: Homo sapiens, 24 h, inhibiting 50% of Aβ1-42 secretion, mean ± SD of at least two experiments in triplicate
Experimental: as §1, §2, §3, §4, §5

αCTF [4] = experiment: αCTF level in SY5Y-APPwt cells by western blotting; type: cell-based; details: Homo sapiens, 24 h; concentration to increase αCTF by 20-fold vs untreated; mean of at least three experiments, less than 10% deviation; read-out: αCTF (C20)
Experimental: as §2
(§6) Cell protein lysates were prepared for western-blot analysis by diluting the sample with 1 volume of NuPAGE® lithium dodecyl sulfate (LDS) 2× sample buffer supplemented with 20% NuPAGE® sample reducing agents (Invitrogen). Samples were heated for 10 min at 100°C Ten μg of total proteins per well were loaded onto precast 4-12% Criterion XT Bis-Tris polyacrylamide gels (Bio-Rad) and electrophoresis was achieved after applying a tension of 150 V during 90 min using a Criterion electrophoresis Cell with the NuPAGE® MOPS SDS running buffer (1×). Proteins were transferred to a nitrocellulose membrane of […] pore size (G&E Healthcare) using the Criterion blotting system and applying a tension of 100 V for 45 min. To resolve proteins of low molecular weights such as carboxy-terminal fragments of APP, 12% Criterion XT Bis-Tris polyacrylamide gels (Bio-Rad) were used and electrophoresis was performed during 70 min at 150 V in a NuPAGE® MES SDS running buffer (1×). […] Protein transfer and quality were determined by a reversible Ponceau Red coloration (0.2% xylidine Ponceau Red and 3% trichloroacetic acid). […] Quantifications of protein expression levels were performed with Image Quant TL (G&E Healthcare). […]
(§7) Compounds of the invention (compounds 16-17, 24-35, 57-58 and 61-72) were evaluated for their ability to modulate APP processing on SYSY human neuroblastoma cell line stably expressing the neuronal isoform of human wild-type APP695 (SY5Y-APP^wt). […]

AICD [5] = experiment: AICD level in SY5Y-APPwt cells by western blotting; type: cell-based; details: Homo sapiens, 24 h; concentration to increase AICD by 20-fold vs untreated; mean of at least three experiments, less than 10% deviation; read-out: AICD (C20)
Experimental: as §2, §6, §7

Cytotoxicity MTS assay = type: cell-based; details: human, sy5y-app695wt cells; 50% of cell death after 72 h treatment
Experimental: Cytotoxicity was measured using 3-(4,5-dimethylthiazol-2-yl)-5-(3-carboxymethoxyphenyl)-2-(4-sulfophenyl)-2H-tetrazolium (MTS) tests. SY5Y-APP^695WT cells were plated in a 96-wells plate at 3.10^4 cells per well and allowed to attach for 24 h. Cells were then incubated for 72 h with 100 μL of DMEM medium with 10% SVF containing (or not) the defined concentration of drugs. Cytotoxicity was determined by using the colorimetric MTS assay (Cell Titer 96® Aqueous One Solution Cell Proliferation Assay-MTS Promega) according to the manufacturer's instructions. Absorbance was read at 490 nm.

sAPPβ = sAPPβ secretion (sAPPα/sAPPβ multiplex kit); type: cell-based; details: Homo sapiens; inhibiting 50% of sAPPβ secretion in SY5Y cells; mean ± SD of at least three experiments in triplicate
Experimental: (§8) The human neuroblastoma cell line SY5Y-APP^695WT was maintained in Dulbecco's modified Eagle medium (DMEM, high glucose, pyruvate—GIBCO, Life Technologies) supplemented with 10% fetal bovine serum, 2 mM L-glutamine, 1 mM non-essential amino acids and penicillin/streptomycin (GIBCO, Life Technologies) at 37°C in a 5% CO2 humidified incubator [36]. For compound treatment, a 10 mM stock solution was diluted in freshly supplemented DMEM medium to obtain the precise final concentration of the drug. Cells were plated at a density of 5.10^5 cells per well into 12-well plates and cultured with 1 mL supplemented DMEM cell medium for 24 h before compound exposure. […] Total protein concentration was determined using the Pierce BCA Protein Assay Kit (Thermo Scientific) according to the manufacturer's instructions. […]
as §4, with “instructions. […]” for “instructions.”
(§9) The activity of compounds of the invention on sAPPα 6 and sAPPβ was further explored. The expression of sAPPβ and sAPPα, which are by-products of β- and α-secretase respectively, were quantified in media of treated cells.

sAPPα = sAPPα secretion (sAPPα/sAPPβ multiplex kit); type: cell-based, human; details: for EC (1.5-fold): Homo sapiens, 24 h, concentration to increase sAPPα by 1.5-fold vs untreated, read-out: sAPPα C1.5; for secretion of sAPPα: in words
Experimental: as §2
Conditioned media of SYSY-APP^695WT collected at the end of treatments were centrifuged at 1000×g for 5 min to eliminate cell debris.
as §4
(§10) Compounds of the invention (compounds 16-17, 24-35, 57-58 and 61-72) were evaluated for their ability to modulate APP processing on SYSY human neuroblastoma cell line stably expressing the neuronal isoform of human wild-type APP695 (SY5Y-APP^wt). APP carboxy-terminal fragments (αCTFs and AICD) levels were assessed by western blotting (WB). The effect of reference and test compounds on αCTFs and AICD is expressed as the intensity of corresponding WB bands. The concentration of compounds able to increase 20-times αCTFs and AICD (C20) when compared to the control condition was calculated. Selected compounds were also evaluated for their ability to modulate the secretion of soluble APP fragments (sAPPα and sAPPβ). Aβ1-x levels (Aβ1_40 and Aβ1-42) after treatment with reference and tested compounds were measured in the cell media by ELISA (Table 2). […] Selected hit compounds were then further evaluated for their ability to decrease the level of N-truncated Aβ peptides (Aβx-38, Aβx-40, and Aβx-42). […] 2015, 6, 559-569; B1: compound 8 of M. Gay et al., Bioorg. Med. Chem. 2018, 26, 2151-2164.
as §9

Aβ1-x peptides = experiment: Aβ1-x (Aβ1-40 and Aβ1-42) secretion; type: cell-based, human; details: in words
Experimental: as §8, with “exposure. The following day, the cell medium was replaced with fresh medium containing the compounds diluted at the indicated concentrations. Cells were treated for 24 h.” for “exposure.”
as §4, with “instructions. […]” for “instructions.”

β-secretase = β-secretase cleavage of APP; type: cell-based, human; details: in words
Experimental: as §10, §9

SMILES	IC50 (Aβ1-40)	IC50 (Aβ1-42)	EC (20-fold increase) (αCTF [4])	EC (20-fold increase) (AICD [5])	CC50 at 72 h (Cytotoxicity MTS assay)	EC (1.5-fold) (sAPPα)	other results
CCN(CC)CCCC(C)Nc1ccnc2cc(Cl)ccc12 (stereo not drawn) [CQ, chloroquine]	–	–	–	–	–	–	αCTF (C20) (αCTF [1]): >>10 μM; AICD (C20) (AICD [2]): >>10 μM; CC50 (SY5Y-APP695WT cells): 30 µM; Aβ production (Aβ): inhibit Aβ production; levels of other APP metabolites such as APP-CTFs and AICD (APP-CTFs and AICD): maintained and even increased; γ-secretase cleavage of Notch [3]: remains unmodified
CN(C)CCCc1ccc(-c2nn(-c3ccc(CN(C)CCCN(C)C)cc3)cc2CN(C)C)cc1 [Compound 32, N′-[[4-[4-(dimethylaminomethyl)-3-[4-[3-(dimethylamino)propyl]phenyl]-1H-pyrazol-1-yl]phenyl]methyl]-N,N,N′-trimethyl-propane-1,3-diamine]	4.2 ± 0.1 µM	6.1 ± 0.3 µM	1.1 µM	1.8 µM	> 100 µM	–	–
CN(C)CCCc1ccc(-c2nn(-c3ccc(CN(C)CCCN(C)C)cc3)cc2CCCN(C)C)cc1 [Compound 33, N′-[[4-[4-[3-(dimethylamino)propyl]-3-[4-[3-(dimethylamino)propyl]phenyl]-1H-pyrazol-1-yl]phenyl]methyl]-N,N,N′-trimethyl-propane-1,3-diamine]	9.2 ± 0.4 µM	9.7 ± 1.2 µM	6.1 µM	8.9 µM	> 100 µM	> 10 µM	IC50 (sAPPβ): 6.8 ± 0.3 µM
CN(C)CCCc1ccc(-c2nn(-c3cccc(CN(C)CCCN(C)C)c3)cc2CN(C)C)cc1 [Compound 34, N′-[[3-[4-(dimethylaminomethyl)-3-[4-[3-(dimethylamino)propyl]phenyl]-1H-pyrazol-1-yl]phenyl]methyl]-N,N,N′-trimethyl-propane-1,3-diamine]	5.7 ± 0.5 µM	8.3 ± 0.2 µM	1.1 µM	1.9 µM	> 100 µM	> 10 µM	IC50 (sAPPβ): 4.5 ± 0.7 µM
CN(C)CCCc1ccc(-c2nn(-c3cccc(CN(C)CCCN(C)C)c3)cc2CCCN(C)C)cc1 [Compound 35, N′-[[3-[4-[3-(dimethylamino)propyl]-3-[4-[3-(dimethylamino)propyl]phenyl]-1H-pyrazol-1-yl]phenyl]methyl]-N,N,N′-trimethyl-propane-1,3-diamine]	12.4 ± 0.6 µM	13.2 ± 0.2 µM	5.1 µM	5.4 µM	> 100 µM	–	–
Cc1cn(-c2cccc(CN(C)C)c2)nc1-c1ccc(CN(C)CCCN(C)C)cc1 [Compound 67, {[4-(1-{3-[(dimethylamino)methyl]phenyl}-4-methyl-1H-pyrazol-3-yl)phenyl]methyl}-[3-(dimethylamino)propyl]methylamine]	–	–	–	–	–	1.4 µM	secretion of sAPPα (sAPPα): increasing the secretion of sAPPα; Aβ1-x peptides secretion (Aβ1-x peptides): reduce Aβ1-x peptides secretion; β-secretase cleavage of APP / β-secretase modulatory activity (β-secretase): repressing the β-secretase cleavage of APP
Cc1cn(-c2cccc(CN(C)CCCN(C)C)c2)nc1-c1ccc(CN(C)CCCN(C)C)cc1 [Compound 69, [3-(dimethylamino)propyl][(4-{1-[3-({[3-(dimethylamino)propyl](methyl)amino}methyl)phenyl]-4-methyl-1H-pyrazol-3-yl}phenyl)methyl]methylamine]	–	–	–	–	–	> 5 µM	–
Cc1cn(-c2cccc(CN3CCN(C)CC3)c2)nc1-c1cccc(CN(C)CCCN(C)C)c1 [Compound 71, N,N,N′-trimethyl-N′-[[3-[4-methyl-1-[3-[(4-methylpiperazin-1-yl)methyl]phenyl]pyrazol-3-yl]phenyl]methyl]propane-1,3-diamine]	–	–	–	–	–	1.1 µM	secretion of sAPPα (sAPPα): increasing the secretion of sAPPα; Aβ1-x peptides secretion (Aβ1-x peptides): reduce Aβ1-x peptides secretion; β-secretase cleavage of APP / β-secretase modulatory activity (β-secretase): repressing the β-secretase cleavage of APP
